# “Also recorded” adds a separate entry of the source.
# Columns and labels:
# [1] = system: CHO/PAR-2 cells; assay: Lectin labeling of fixed cells, CHO/PAR-2; format: cell-based; conditions: TRITC-lectin 10 nM and 20 nM
# Method: Lectin labeling of fixed cells was conducted as follows: To detach confluent cells in order to prepare experiments for internalization studies, cells were always treated with EDTA solution instead of trypsin solution. For all seeding, washing, and labeling steps in 96-well plates a working volume of 100 μl per well was assessed. Cells were seeded out into a 96-well plate at different concentrations. U2OS/ETAR-GFP suspensions were adjusted to yield 2*10^4 cells/well, both of the CHO cell lines must be at 2.5*10^4 cells/well. Cells became confluent after 24 hours of incubation. In the following, they were washed with phosphate buffered saline (PBS) and fixed with 3% PFA for 20 minutes at RT. Then, cells were washed again with PBS and incubated in 10 nM and 20 nM solutions of each TRITC-lectin candidate in PBS, respectively. Again, cells were washed with PBS to remove excess lectin, and wells were refilled with PBS for analysis. For specificity controls, lectin solutions were incubated for 30 minutes prior to the application with an excess of the monosaccharide that represents the respective glyco-epitope.
# The following microscopy and image analysis techniques were employed. When utilizing the epifluorescence microscope magnifications were adjusted according to the purpose of observation, e.g. single cell vs. cell collective. Concerning the filters U-MNU was used for Hoechst, U-MSWB for GFP, and U-N41007 for TRITC detection. Hoechst images were taken at 50 ms exposure time, GFP images at 100 to 200 ms and TRITC images needed 500 to 1000 ms. Overlay images were assembled with AnalySIS and tuned in color intensity to obtain the desired color contrast. Images taken to compare two experimental conditions, e.g. control vs. stimulus, featured identical exposure parameters. If possible, well areas were chosen that reflect similar states of confluence. Utilizing the Opera confocal fluorescence imager, the instrument was calibrated running standard methods for skew cropping (spatial camera alignments) and camera intensity normalization.
# [2] = system: CHO/PAR-2 cell membrane protein; assay: Lectin blotting of PAR-2 membrane sample; format: binding
# Method: Membrane preparation was conducted as follows: Cells were cultured in five T175 flasks until confluency. Confluent cells were detached by applying 3 ml of EDTA solution onto the PBS washed cells. Following a 20-minute incubation at 37° C. and 5% CO2, cells were resuspended in 12 ml of starvation medium (standard medium without FCS), counted, and centrifuged in a Heraeus Megafuge 1.0R at 133 rcf for 4 minutes. All subsequent steps were carried out on ice and with ice cold solutions. After unification of all pellet fractions, hypotonic lysis buffer was added to the cells at a ratio of 1 ml per 5*10^7 cells. Additionally, protease inhibitor cocktail was added to 50 μl per 5*10^7 cells. Cells were homogenized with 30 strokes in a 5 ml potter on ice, centrifuged at 4° C. and 917 rcf for 10 minutes, and the supernatant was stored in an ultracentrifuge tube on ice. The pellet fraction was homogenized and centrifuged once again as described above. The supernatants of both procedures were unified and centrifuged at 4° C. and 100,000 rcf for 45 minutes in a Sorvall ultra-centrifuge. The supernatant of this centrifugation procedure was withdrawn and the pellet dissolved in 0.5 ml or 1.0 ml modified SDS PAGE loading buffer containing Tris-HCl, SDS, glycerol, but no β-mercapto-ethanol or dyes and stored in small aliquots of 50 μl at −20° C.
# SDS-Page of membrane samples was conducted as follows: Discontinuous 12% polyacrylamide gels were prepared according to a standard protocol. Broad range marker and 25 μg membrane protein were mixed 1:1 with loading buffer and loaded five times onto a mini gel in alternating order. The gels were run at U=100 V for the first 20 minutes. Subsequently, voltage was increased to U=150 V. The run was aborted as soon as the pyronin G band reached the end of the gel. For coomassie staining, gels were put in coomassie staining solution on a shaker at low revolutions for 45 min. The staining solution was removed and the gel incubated with destaining solution for one to two hours, exchanging the solution several times until the desired contrast was obtained.
# Blotting of membrane samples was conducted as follows: For blotting, 3 mm packs of Whatman papers were extensively soaked in one of the diverging blotting buffers, AB I, AB II, and CB, and a pile was assembled in a semi-dry Trans-Blot 3D system from Bio-Rad as depicted in the sketch of FIG. 2. Hybond nitrocellulose membrane was submerged in AB II prior to assembly. To smooth out any air bubbles from the pile, a Pasteur pipette was rolled several times over the top layer. The apparatus was closed and ran at U=25 V for 45 minutes. Then, the pile was disassembled, the membrane submerged in Ponceau S solution and gently swayed for 2 minutes. For destaining, ddH2O was substituted for the staining solution, and the membrane was briefly rinsed twice. After drying under ambient conditions, the marker bands were marked with a ballpoint-pen. The membrane was cut into slices each displaying one marker and one sample lane.
# Probing of membrane samples was conducted as follows: For classical western blotting, membranes were blocked in PBS containing 5% low fat dried milk powder. They were placed on a rotating shaker at low revolutions for 1 hour. Subsequently, membranes were sealed in plastic bags with blocking solution additionally containing 1 μg/ml anti-PAR-2 antibody (1:400) or 0.5 μg/ml of anti-ETAR antibody (1:500), depending on the respective recombinant cell type used for the sample. […]
substance,measurement,setting,value
succinylated Triticum vulgaris (wheat germ) agglutin [sWGA],Staining of CHO/PAR-2,[1],signals clearly marking individual cells; also recorded: cell surface
same,striking bands below 35 kDa,[2]; PAR-2 sample,at least nine
same,"band at the same height as the western band (55 kDa, anti-PAR-2)",[2]; biotinylated lectin 5 μg/ml,one at the same height as the western band; also recorded: intense band
same,bands detected above 35 kDa,"[2]; biotinylated lectin 5 μg/ml, exposure one to five minutes",two

# From patent US20100068747A1, “Generic Assay for Monitoring Endocytosis” (Evotec Technologies GmbH, priority 2005, published 2010)
